# Experimental data reported in ChEMBL document CHEMBL4270535, “Facile synthesis of vanillin-based novel bischalcones identifies one that induces apoptosis and displays synergy with Artemisinin in killing chloroquine resistant Plasmodium falciparum” (Eur J Med Chem, 2018).
# Activity calls are given as the source filed them. The calls are words filed in the database; no cut-off is given here.
# Columns and labels:
# Plasmodium falciparum [1] = assay: Antiplasmodial activity against synchronized ring stage of chloroquine-resistant Plasmodium falciparum INDO infected in human erythrocytes after 48 hrs by SYBR Green 1 dye based fluorescence assay; type: functional, organism-based
# Plasmodium falciparum [2] = assay: Antiplasmodial activity against synchronized ring stage of chloroquine-resistant Plasmodium falciparum Dd2 infected in human erythrocytes after 48 hrs by SYBR Green 1 dye based fluorescence assay; type: functional, organism-based; conditions: Dd2, 48 h
# [3] = Selectivity index, ratio of IC50 for mouse L929 cells to IC50 for synchronized ring stage of chloroquine-sensitive Plasmodium falciparum 3D7 infected in human erythrocytes; type: toxicity, cell-based; conditions: read-out: Ratio IC50
# [4] = Resistance index, ratio of IC50 for synchronized ring stage of chloroquine-resistant Plasmodium falciparum INDO infected in human erythrocytes to IC50 for synchronized ring stage of chloroquine-sensitive Plasmodium falciparum 3D7 infected in human erythrocytes; type: functional
# [5] = Selectivity index, ratio of IC50 for human HeLa cells to IC50 for synchronized ring stage of chloroquine-sensitive Plasmodium falciparum 3D7 infected in human erythrocytes; type: toxicity, cell-based; conditions: read-out: Ratio IC50
# Plasmodium falciparum [6] = assay: Antiplasmodial activity against synchronized ring stage of chloroquine-sensitive Plasmodium falciparum 3D7 infected in human erythrocytes after 48 hrs by SYBR Green 1 dye based fluorescence assay; type: functional, organism-based; conditions: 3D7, 48 h
# [7] = Resistance index, ratio of IC50 for synchronized ring stage of chloroquine-resistant Plasmodium falciparum Dd2 infected in human erythrocytes to IC50 for synchronized ring stage of chloroquine-sensitive Plasmodium falciparum 3D7 infected in human erythrocytes; type: functional
# Plasmodium falciparum [8] = assay: Induction of apoptosis in synchronized trophozoite stage of chloroquine-resistant Plasmodium falciparum INDO infected in human erythrocytes assessed as parasite killing at 8 uM up to 24 hrs by Giemsa staining based microscopic analysis; type: functional, organism-based
# Plasmodium falciparum [9] = assay: (§1) Synergistic plasmodicidal activity against synchronized trophozoite stage of chloroquine-resistant Plasmodium falciparum INDO infected in human erythrocytes assessed as parasite killing at FIC90 treated for 18 to 24 hrs followed by compound wash out measured after 48 to 54 hrs followed by compound wash out measured after 48 to 54 hrs in presence of artemisinin by Giemsa staining based microscopic analysis; type: functional, organism-based
# Plasmodium falciparum [10] = assay: (§2) Induction of apoptosis in synchronized trophozoite stage of chloroquine-resistant Plasmodium falciparum INDO infected in human erythrocytes assessed as translocation of phosphatidylserine from inner to outer leaflet of plasma membrane at 8 uM after 12 hrs by Annexin-V/Alexa fluor-488 staining based fluorescence microscopic analysis; type: functional, organism-based
# Plasmodium falciparum [11] = assay: as §2, with “flow cytometry” for “fluorescence microscopic analysis”; type: functional, organism-based
# Plasmodium falciparum [12] = assay: as §1, with “ring” for “trophozoite”, “6” for “18”, “48” for “24”, “90” for “54”; type: functional, organism-based
# Plasmodium falciparum [13] = assay: Antiplasmodial activity against synchronized trophozoite stage of chloroquine-resistant Plasmodium falciparum INDO infected in human erythrocytes assessed as parasite growth inhibition at 8 uM treated for 18 to 24 hrs by Giemsa staining based microscopic analysis; type: functional, organism-based
# Plasmodium falciparum [14] = assay: Induction of apoptosis in synchronized trophozoite stage of chloroquine-resistant Plasmodium falciparum INDO infected in human erythrocytes assessed as chromatin fragmentation at 8 uM by Hoechst 33342 staining based fluorescence microscopic analysis; type: functional, organism-based; conditions: TDE = time-dependent effect
# Plasmodium falciparum [15] = assay: as §1, with “chloroquine” for “artemisinin”; type: functional, organism-based
# Plasmodium falciparum [16] = assay: as §1, with “antiplasmodial” for “plasmodicidal”, “growth inhibition” for “killing”, “24” for “24 hrs followed by compound wash out measured after 48 to 54”; type: functional, organism-based
# Plasmodium falciparum [17] = assay: Synergistic antiplasmodial activity against synchronized ring stage of chloroquine-sensitive Plasmodium falciparum 3D7 infected in human erythrocytes assessed as FIC index in presence of chloroquine; type: functional
# Plasmodium falciparum [18] = assay: Synergistic antiplasmodial activity against synchronized ring stage of chloroquine-resistant Plasmodium falciparum INDO infected in human erythrocytes assessed as FIC index in presence of chloroquine; type: functional
# Plasmodium falciparum [19] = assay: (§3) Plasmodicidal activity against synchronized trophozoite stage of chloroquine-resistant Plasmodium falciparum INDO infected in human erythrocytes assessed as parasite killing at 8 uM treated for 18 to 24 hrs followed by compound wash out measured after 48 to 54 hrs by Giemsa staining based microscopic analysis; type: functional, organism-based
# Plasmodium falciparum [20] = assay: Antiplasmodial activity against synchronized schizont stage of chloroquine-resistant Plasmodium falciparum INDO infected in human erythrocytes assessed as parasite growth inhibition at 8 uM treated for 12 hrs by Giemsa staining based microscopic analysis; type: functional, organism-based
# Plasmodium falciparum [21] = assay: (§4) Synergistic antiplasmodial activity against synchronized schizont stage of chloroquine-resistant Plasmodium falciparum INDO infected in human erythrocytes assessed as parasite growth inhibition at 2 times FIC100 treated for 12 hrs followed by compound wash out measured after 48 hrs in presence of chloroquine by Giemsa staining based microscopic analysis; type: functional, organism-based
# Plasmodium falciparum [22] = assay: as §1, with “antiplasmodial” for “plasmodicidal”, “growth inhibition” for “killing”, “hrs” for “hrs followed by compound wash out measured after 48 to 54 hrs”, “chloroquine” for “artemisinin”; type: functional, organism-based
# Plasmodium falciparum [23] = assay: as §1, with “2 times FIC100” for “FIC90”; type: functional, organism-based
# Plasmodium falciparum [24] = assay: Induction of apoptosis in synchronized trophozoite stage of chloroquine-resistant Plasmodium falciparum INDO infected in human erythrocytes assessed as activation of caspase-like protease at 8 uM after 12 hrs by Caspase FITC-VAD-FMK substrate based fluorescence microscopic analysis; type: functional, organism-based
# Plasmodium falciparum [25] = assay: as §3, with “ring” for “trophozoite”, “6” for “18”, “48” for “24”, “90” for “54”; type: functional, organism-based
# Plasmodium falciparum [26] = assay: Induction of apoptosis in synchronized trophozoite stage of chloroquine-resistant Plasmodium falciparum INDO infected in human erythrocytes assessed as chromatin fragmentation at 8 uM after 24 hrs by agarose gel electrophoresis method; type: functional, organism-based
# Plasmodium falciparum [27] = assay: Synergistic antiplasmodial activity against synchronized ring stage of chloroquine-sensitive Plasmodium falciparum 3D7 infected in human erythrocytes assessed as FIC index in presence of artemisinin; type: functional
# Plasmodium falciparum [28] = assay: (§5) Synergistic plasmodicidal activity against synchronized schizont stage of chloroquine-resistant Plasmodium falciparum INDO infected in human erythrocytes assessed as parasite killing at 2 times FIC100 treated for 12 hrs followed by compound wash out measured after 48 hrs in presence of artemisinin by Giemsa staining based microscopic analysis; type: functional, organism-based
# Plasmodium falciparum [29] = assay: Induction of apoptosis in synchronized trophozoite stage of chloroquine-resistant Plasmodium falciparum INDO infected in human erythrocytes assessed as activation of caspase-like protease at 8 uM after 12 hrs by Caspase FITC-VAD-FMK substrate based flow cytometry; type: functional, organism-based
# Plasmodium falciparum [30] = assay: Synergistic antiplasmodial activity against synchronized ring stage of chloroquine-sensitive Plasmodium falciparum 3D7 infected in human erythrocytes assessed as ratio of IC50 in absence of artemisinin to IC50 in presence of artemisinin; type: functional
# Plasmodium falciparum [31] = assay: as §4, with “FIC90” for “2 times FIC100”; type: functional, organism-based
# Plasmodium falciparum [32] = assay: Induction of mitochondrial membrane potential loss in synchronized trophozoite stage of chloroquine-resistant Plasmodium falciparum INDO infected in human erythrocytes at 8 uM after 18 to 24 hrs by fluorescence microscopic analysis; type: functional, organism-based
# Plasmodium falciparum [33] = assay: as §4, with “ring” for “schizont”, “6 to 48” for “12”, “48 to 90” for “48”; type: functional, organism-based
# Plasmodium falciparum [34] = assay: as §4, with “trophozoite” for “schizont”, “18 to 24” for “12”, “48 to 54” for “48”; type: functional, organism-based
# Plasmodium falciparum [35] = assay: as §1, with “ring” for “trophozoite”, “6” for “18”, “48” for “24”, “90” for “54”, “chloroquine” for “artemisinin”; type: functional, organism-based
# Plasmodium falciparum [36] = assay: Plasmodicidal activity against synchronized schizont stage of chloroquine-resistant Plasmodium falciparum INDO infected in human erythrocytes assessed as parasite killing at 8 uM treated for 12 hrs followed by compound wash out measured after 48 hrs by Giemsa staining based microscopic analysis; type: functional, organism-based
# Plasmodium falciparum [37] = assay: (§6) Synergistic antiplasmodial activity against synchronized ring stage of chloroquine-resistant Plasmodium falciparum INDO infected in human erythrocytes assessed as parasite growth inhibition at FIC90 treated for 6 to 48 hrs followed by compound wash out measured after 48 to 90 hrs in presence of artemisinin by Giemsa staining based microscopic analysis; type: functional, organism-based
# Plasmodium falciparum [38] = assay: Antiplasmodial activity against synchronized ring stage of chloroquine-resistant Plasmodium falciparum INDO infected in human erythrocytes assessed as parasite growth inhibition at 8 uM treated for 6 to 48 hrs by Giemsa staining based microscopic analysis; type: functional, organism-based
# Plasmodium falciparum [39] = assay: Synergistic antiplasmodial activity against synchronized ring stage of chloroquine-resistant Plasmodium falciparum INDO infected in human erythrocytes assessed as FIC index in presence of artemisinin; type: functional
# Plasmodium falciparum [40] = assay: as §5, with “ring” for “schizont”, “6 to 48” for “12”, “48 to 90 hrs followed by compound wash out measured after 48 to 90” for “48”; type: functional, organism-based
# Plasmodium falciparum [41] = assay: as §6, with “chloroquine” for “artemisinin”; type: functional, organism-based
# Plasmodium falciparum [42] = assay: as §4, with “inhibition at FIC90 treated for” for “inhibition at 2 times FIC100 treated for”, “presence of artemisinin by Giemsa” for “presence of chloroquine by Giemsa”; type: functional, organism-based
structure (smiles),measurement,setting,value
C=CCOc1c(OC)cc(/C=C/C(=O)c2cc(OC)c(OC)c(OC)c2)cc1-c1cc(/C=C/C(=O)c2cc(OC)c(OC)c(OC)c2)cc(OC)c1OCC=C,IC50,Plasmodium falciparum [1],2.2 µM
same,IC50,Plasmodium falciparum [2],1.7 µM
same,selectivity ratio,[3],> 36.4
same,Ratio IC50,[4],0.4
same,selectivity ratio,[5],> 36.4
same,IC50,Plasmodium falciparum [6],5.5 µM
same,Ratio IC50,[7],0.3
C=CCOc1c(OC)cc(/C=C/C(=O)c2ccc(OCCC)cc2)cc1-c1cc(/C=C/C(=O)c2ccc(OCCC)cc2)cc(OC)c1OCC=C,IC50,Plasmodium falciparum [1],12.2 µM
same,IC50,Plasmodium falciparum [2],11.6 µM
same,selectivity ratio,[3],> 66.7
same,Ratio IC50,[4],8.1
same,selectivity ratio,[5],> 66.7
same,IC50,Plasmodium falciparum [6],1.5 µM
same,Ratio IC50,[7],7.7
C=CCOc1c(OC)cc(/C=C/C(=O)c2ccc([N+](=O)[O-])cc2)cc1-c1cc(/C=C/C(=O)c2ccc([N+](=O)[O-])cc2)cc(OC)c1OCC=C,IC50,Plasmodium falciparum [1],5 µM
same,IC50,Plasmodium falciparum [2],9.3 µM
same,selectivity ratio,[3],3.2
same,Ratio IC50,[4],0.2
same,selectivity ratio,[5],> 4
same,IC50,Plasmodium falciparum [6],25 µM
same,Ratio IC50,[7],0.37
COc1cc(/C=C/C(=O)c2ccccc2)cc(-c2cc(/C=C/C(=O)c3ccccc3)cc(OC)c2OC)c1OC,IC50,Plasmodium falciparum [1],3.7 µM
same,IC50,Plasmodium falciparum [2],3.7 µM
same,selectivity ratio,[3],1.1
same,Ratio IC50,[4],0.4
same,selectivity ratio,[5],12.4
same,IC50,Plasmodium falciparum [6],9.3 µM
same,Ratio IC50,[7],0.4
C=CCc1cc(/C=C/C(=O)c2cccc(C(=O)/C=C/c3cc(CC=C)c(OC)c(OC)c3)c2)cc(OC)c1OC,Activity,Plasmodium falciparum [8],Active
same,Activity,Plasmodium falciparum [9],inactive
same,Activity,Plasmodium falciparum [10],Active
same,Activity,Plasmodium falciparum [11],Active
same,Activity,Plasmodium falciparum [12],inactive
same,Activity,Plasmodium falciparum [13],Active
same,Activity,Plasmodium falciparum [14],Tde
same,Activity,Plasmodium falciparum [15],inactive
same,IC50,Plasmodium falciparum [1],3.8 µM
same,Activity,Plasmodium falciparum [16],Active
same,IC50,Plasmodium falciparum [2],3.5 µM
same,fractional inhibitory concentration index (FICI),Plasmodium falciparum [17],1.38 - 3.34
same,fractional inhibitory concentration index (FICI),Plasmodium falciparum [18],0.7 - 1.23
same,Activity,Plasmodium falciparum [19],Active
same,Activity,Plasmodium falciparum [20],Active
same,Activity,Plasmodium falciparum [21],Active
same,Activity,Plasmodium falciparum [22],Active
same,Activity,Plasmodium falciparum [23],inactive
same,selectivity ratio,[3],8.8
same,Activity,Plasmodium falciparum [24],Active
same,Activity,Plasmodium falciparum [25],Active
same,Ratio IC50,[4],1.5
same,Activity,Plasmodium falciparum [26],Active
same,selectivity ratio,[5],11.2
same,fractional inhibitory concentration index (FICI),Plasmodium falciparum [27],1.33 - 1.58
same,Activity,Plasmodium falciparum [28],inactive
same,Activity,Plasmodium falciparum [29],Active
same,Ratio IC50,Plasmodium falciparum [30],20 - 311
same,Activity,Plasmodium falciparum [31],Active
same,Activity,Plasmodium falciparum [32],Active
same,IC50,Plasmodium falciparum [6],2.5 µM
same,Activity,Plasmodium falciparum [33],Active
same,Activity,Plasmodium falciparum [34],Active
same,Activity,Plasmodium falciparum [35],inactive
same,Activity,Plasmodium falciparum [36],Active
same,Ratio IC50,[7],1.4
same,Activity,Plasmodium falciparum [37],Active
same,Activity,Plasmodium falciparum [38],Active
same,fractional inhibitory concentration index (FICI),Plasmodium falciparum [39],0.46 - 0.58
same,Activity,Plasmodium falciparum [40],Active
same,Activity,Plasmodium falciparum [41],Active
same,Activity,Plasmodium falciparum [42],Active
C=CCOc1ccc(C(=O)/C=C/c2cc(OC)c(OCC=C)c(-c3cc(/C=C/C(=O)c4ccc(OCC=C)cc4)cc(OC)c3OCC=C)c2)cc1,IC50,Plasmodium falciparum [1],> 50 µM
same,IC50,Plasmodium falciparum [2],16.6 µM
same,selectivity ratio,[3],> 100
same,Ratio IC50,[4],>25
same,selectivity ratio,[5],> 100
same,IC50,Plasmodium falciparum [6],2 µM
same,Ratio IC50,[7],8.3
C=CCOc1ccc(/C=C/C(=O)c2cccc(C(=O)/C=C/c3ccc(OCC=C)c(OCC=C)c3)c2)cc1OCC=C,IC50,Plasmodium falciparum [1],13.7 µM
same,IC50,Plasmodium falciparum [2],18.9 µM
same,selectivity ratio,[3],> 5.6
same,Ratio IC50,[4],0.76
same,selectivity ratio,[5],> 5.6
same,IC50,Plasmodium falciparum [6],18 µM
same,Ratio IC50,[7],1.05
C=CCOc1c(OC)cc(/C=C/C(=O)c2ccc(OC)cc2)cc1-c1cc(/C=C/C(=O)c2ccc(OC)cc2)cc(OC)c1OCC=C,IC50,Plasmodium falciparum [6],57 µM
